According to the supplement of paper PMC10949913:
Values joined by “and” are separate entries in the source; they are usually repeats but may differ in a detail not shown here. Equal entries are not always repeated.

Key:
Experiment in all cases: area under concentration-response curve (viability) (AUC (a.u.)); higher = less active
Details in all cases: 48 h
CU-ACC1 = test system: CU-ACC1
Procedure, shortened: (§1)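 Three adrenocortical carcinoma cell lines were plated in 1,536-well plates at 500–1,000 cells/well in 5 µL medium, and 23 nL of each library compound was added at 11 concentrations. After 48 h, CellTiter-Glo was applied for 15 minutes at room temperature before luminescence was read. Each plate's signals were normalised to vehicle and empty-well controls. AC50 and area under the curve were taken from fitted concentration-response curves, with only inhibitory or non-responding curve classes retained.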

CU-ACC2 = test system: CU-ACC2
Procedure, shortened: as §1

NCI-H295R = test system: NCI-H295R
Procedure, shortened: as §1

| Compound | area under concentration-response curve (CU-ACC1) | area under concentration-response curve (CU-ACC2) | area under concentration-response curve (NCI-H295R) |
| --- | --- | --- | --- |
| CN(C)[C@H]\1[C@@H]2C[C@@H]\3CC4=C(C(=C(NC(=O)CNC(C)(C)C)C=C4N(C)C)O)C(=O)C3=C(O)/[C@@]2(O)C(=O)\C(=C1O)C(N)=O | 380 | 452 | 379 |
| CC12CC3CC(C)(C1)CC(N)(C3)C2 | 437 | 431 | 457 |
| CNC(=O)c1ccc(-c2cnc3ncc(Cc4ccc5ncccc5c4)n3n2)cc1F | 481 | 520 | 511 |
| CN(CCOc1ccc(C[C@H](Nc2ccccc2C(=O)c2ccccc2)C(=O)O)cc1)c1ccccn1 | 429 and 437 | 413 | 388 and 454 |
| C\C1=C(\SSC1=S)C2=CN=CC=N2 | 524 | 618 | 569 |
| CNC(=O)Cn1cc(-c2ccc3c(c2)C(F)CC32NC(=O)N(CC(=O)N(Cc3ccc(F)cc3)[C@@H](C)C(F)(F)F)C2=O)cn1 (some centres not stated) | 517 | 549 | 504 |
| NCCCC(O)(P(=O)([O-])O)P(=O)(O)O | 511 | 529 | 472 |
| CCOC(=O)[C@H](CCc1ccccc1)N[C@@H](C)C(=O)N1[C@H](C(=O)O)C[C@@H]2CCC[C@@H]21 | 545 | 649 | 595 |
| CCOC(=O)[C@H]1O[C@@H]1C(=O)N[C@@H](CC(C)C)C(=O)NCCC(C)C | 566 | 589 | 527 |
| Cc1c(OCC(F)(F)F)ccnc1C[S+]([O-])c1nc2ccccc2[nH]1 (configuration not stated) | 526 | 624 | 571 |
| CCCC(CCC)C(=O)NC/1=N/C(=O)N(/C=C1)[C@@H]2O[C@H](CO)[C@@H](O)C2(F)F | 496 | 481 | 543 |
| O=C1CC[C@H](N2Cc3c(OCc4ccc(CN5CCOCC5)cc4)cccc3C2=O)C(=O)N1 | 517 | 606 | 552 |
| CNC(=O)c1c(-c2ccc(F)cc2)oc2cc(N(CCO)[S+](C)(=O)[O-])c(C3CC3)cc12 | 470 | 580 | 496 |
| Nc1ncnc2c1C(=O)N(c1ccc([C@H]3CC[C@H](CC(=O)O)CC3)cc1)CCO2 | 497 | 554 | 509 |
| CC(C)N1C(=O)NC(=C/C1=O)\N[C@@H](C)C2=CC=CC=C2 | 471 | 552 | 497 |
| CC1=C(C)C\2=C(S1)[N]3C(=NN=C3C(CC(N)=O)\N=C2C4=CC=C(Cl)C=C4)C (configuration not stated) | 439 | 480 | 431 |
| Cc1cc(C)cc(Oc2ccc(CNC(=O)[C@H](C)N)cc2C)c1 | 478 | 559 | 509 |
| CC(C)N(CCCNC(=O)Nc1ccc(C(C)(C)C)cc1)C[C@H]1O[C@@H](n2ccc3c(N)ncnc32)[C@H](O)[C@@H]1O | 537 | 656 | 578 |
| CN1CCN2c3ncccc3Cc3ccccc3C2C1 (configuration not stated) | 494 | 579 | 556 |
| Cc1c(F)cc(C(=O)NC2CC2)cc1-c1c(F)cn2c(C(C)(C)C)nnc2c1F | 482 | 507 | 469 |
| N#Cc1ccnc(N2C(=O)CC[C@H]2C(=O)N(c2cncc(F)c2)[C@H](C(=O)NC2CC(F)(F)C2)c2ccccc2Cl)c1 | 486 | 613 | 560 |
| Cc1cc(C)c2c(c1)[C@@H](N(Cc1cc(C(F)(F)F)cc(C(F)(F)F)c1)c1nnn(C)n1)CCCN2C[C@H]1CC[C@H](C(=O)O)CC1 | 489 | 582 | 529 |
| CCC/1=C/C2=C(C(=O)N1CC(=O)C3=CC=CC=C3)C(=C([N]2C)C(=O)NC4CCN(CC4)C(=O)CO)OCC(F)(F)F | 572 | 642 | 594 |
| O=C(C1CCCCC1)N1CC(=O)N2CCc3ccccc3C2C1 (configuration not stated) | 555 | 631 | 544 |
| NC1=NC(=C(C#N)C(=N1)N)N[C@@H](C2CC2)\C3=N\C4=C(C(=CC=C4F)Cl)C(=O)N3C5=CC=CN=C5 | 511 | 570 | 526 |
| CCOC(=O)N1c2ccc(C(F)(F)F)cc2[C@@H](N(Cc2cc(C(F)(F)F)cc(C(F)(F)F)c2)C(=O)OC)C[C@H]1CC | 502 | 636 | 533 |
| Cc1nc(C)c(CN2CCN(C(c3ccc(F)cc3)c3ccc(F)cc3)CC2)nc1C | 481 | 563 | 471 |
| CC(C)(OCc1nn(Cc2ccccc2)c2ccccc12)C(=O)O | 416 | 460 | 491 |
| O=C(O)c1cccc(-c2noc(-c3ccccc3F)n2)c1 | 477 | 559 | 451 |
